Results: US20220088016A1, “CANCER TREATMENT USING MULTI-TARGETED KINASE INHIBITOR IN COMBINATION OF PROTEIN KINASE BIOMARKERS” (ZHEJIANG CROWNMAB BIOTECH CO. LTD., priority 2019, published 2022)
Read-outs that look alike come from different tables or passages of the source.

Assays:
M-NFS-60 cells = experiment: Proliferation of M-NFS-60 cells (CTG assay); type: cell-based, mouse; settings: M-NFS-60 (CSF-1 dependent), 3 days
Experimental: (§1) Two syngeneic cell lines M-NFS-60 and RAW264.7 and engineered BaF3 hCSFIR cell line were starved and then tested with CBT-102 and other test articles for 3 days in the temperature of 37° C., 5% CO2 and 95% humidity. The cell viability was then detected using CTG assay. The software of GraphPad Prism was used to calculate IC50.
(§2) CSF-1 dependent mouse myeloid M-NFS-60 cells were employed as target cells while a CSF-1 independent cell line Raw 264.7 was used as a negative control. In addition to CBT-102, the study also included 3 CSF-1R inhibitors: GW2580, BLZ945 and Pexidartinib.

RAW264.7 cells = experiment: Proliferation of RAW264.7 cells (CTG assay); type: cell-based; settings: RAW264.7 (CSF-1 independent, negative control), 3 days
Experimental: as §1, §2

BaF3 hCSF1R cell line = experiment: Proliferation of engineered BaF3 hCSF1R cell line (CTG assay); type: cell-based
Experimental: as §1, §2

| IC50 (BaF3 hCSF1R cell line; engineered BaF3 hCSF1R, 3 days, CTG, read-out: IC50) | Compound | Max inh. (M-NFS-60 cells) | IC50 (M-NFS-60 cells; Mus musculus, 72 h) | IC50 (RAW264.7 cells; Mus musculus, 72 h) | Max inh. (RAW264.7 cells) | IC50 (M-NFS-60 cells) | IC50 (RAW264.7 cells) | IC50 (BaF3 hCSF1R cell line; Mus musculus, BaF3, 72 h) |
| --- | --- | --- | --- | --- | --- | --- | --- | --- |
|  | CNC(=O)c1cc(Oc2ccc3nc(N[C@@H]4CCCC[C@H]4O)sc3c2)ccn1 [BLZ945] | 99.08% | 3020 nM | > 30000 nM | 24.65% |  |  |  |
| 279 nM | COc1ccc(COc2ccc(Cc3cnc(N)nc3N)cc2OC)cc1 [GW2580] | 99.02% |  |  | 81.91% | 1140 nM | 4060 nM |  |
|  | FC(F)(F)c1ccc(CNc2ccc(Cc3c[nH]c4ncc(Cl)cc34)cn2)cn1 [PLX3397] | 99.32% | 348 nM | 16400 nM | 95.16% |  |  |  |
|  | Cc1cc2cc(Oc3ccnc(Nc4cccc(CS(=O)(=O)NCCN(C)C)c4)n3)ccc2[nH]1 [sulfatinib] |  |  |  |  |  |  | 1330 nM |
